From patent publication EP0460016B1, “METASTASIS-ASSOCIATED COLLAGENOLYTIC METALLOPROTEINASES” (priority 1989, dated 1990) come the findings set out here.

Test [1] has as its target T1, Mr 88,000 proteinase (88/92 kd type IV collagenolytic metalloproteinase) (Rattus norvegicus, UniProt P50282).
T1 construct: type IV collagenolytic enzymes secreted by mammary adenocarcinoma cells; endogenous in cells; host or cells: rat 13762NF mammary adenocarcinoma cell clones (MTF7-T35.3, MTC, MTLn3-T44.5), serum-free conditioned medium
In kind it is biochemical. As to the method: (§1) Identification of type IV collagenolytic enzymes secreted by mammary adenocarcinoma cells was performed by electrophoresis of serum-free conditioned media in a type IV collagen-embedded polyacrylamide gel followed by incubation and Coomassie blue staining, based on the methods described by Heussen and Dowdle (24). Type IV procollagen was purified from Engelbreth-Holm-Sworn tumors, dissolved in 0.5 M acetic acid or bovine lens capsule type IV collagen pepsin fragments (Seikagaku America, St. Petersburg, FL) in HCl at pH 3.0, neutralized with Tris and immediately dissolved in 2% SDS. After removing undissolved materials by a brief centrifugation at 18,000 x g, SDS-solubilized type IV collagen was copolymerized with 7.5% acrylamide. In some experiments, each of the following proteins was also embedded in SDS-polyacrylamide gels: rat hemoglobin; rat immunoglobulin G; bovine serum ablumin; bovine plasma fibronectin; bovine alpha-casein; and gelatin from swine skin (Sigma Chemical, St. Louis, MO). Electrophoresis of serum, or other samples such as one obtained from conditioned media, was carried out by the method of Laemmli (25) in polyacrylamide gels containing 0.5 to 1.0 mg/ml of type IV collagen.
(§2) In the case of serum samples, serum (2.5 ul) was mixed with the same volume of sodium dodecyl sulfate sample buffer without reducing agents, and immediately subjected to electrophoresis in a 7.5% polyacrylamide gel containing the protein substrates. After electrophoresis, gels were rinsed twice with 2.5% Triton X-100 in 50 mM Tris-HCl buffer, pH 7.5, and incubated at 37`C for 16 h in 0.15 M NaCl, 10 mM CaCl₂ and 50 mM Tris-HCl buffer, pH 7.5, containing 0.05% NaN₃. Gels were stained with 0.05% Coomassie blue, 10% isopropanol, and 10% acetic acid in H₂0 and these destained with 10% isopropanol and 10% acetic acid in H₂0. Type IV collagenolytic enzymes were detected as transparent bands on the blue background of Coomassie blue-stained slab gels.
(§3) In order to conduct zymography using samples obtained by the preparation of conditioned media, the following steps were performed. Mammary adenocarcinoma cells (1 x 10⁶ cells) were seeded in a 10-cm tissue culture plate and cultured for 24 h in […] complete medium containing 10% heat-inactivated FBS. The cells were extensively washed with DPBS and then further cultured in 10 ml of serum-free complete medium. The serum-free culture supernatants were withdrawn and sequentially centrifuged at 800 x g and 18,000 x g, and then aliquots of the supernatants were concentrated with Centricon 30 concentrators (Amicon, Danvers, MA) and mixed with SDS sample buffer.

In another test the test system is Mr 64,000 proteinase. The format is biochemical, rat. As for the experimental part:
as §1, §2, §3

Where [2] appears, read: 10 mM in incubation buffer, conditioned media from 48 h cultures.
The mark [3] stands for this setting: 5 mM in incubation buffer, conditioned media from 48 h cultures.
[4] abbreviates: 2 mM in incubation buffer, conditioned media from 48 h cultures.

Molecules are shown by their SMILES. Where two headings read alike, the source gives them in different places.

T1 sequence (P50282 108-708): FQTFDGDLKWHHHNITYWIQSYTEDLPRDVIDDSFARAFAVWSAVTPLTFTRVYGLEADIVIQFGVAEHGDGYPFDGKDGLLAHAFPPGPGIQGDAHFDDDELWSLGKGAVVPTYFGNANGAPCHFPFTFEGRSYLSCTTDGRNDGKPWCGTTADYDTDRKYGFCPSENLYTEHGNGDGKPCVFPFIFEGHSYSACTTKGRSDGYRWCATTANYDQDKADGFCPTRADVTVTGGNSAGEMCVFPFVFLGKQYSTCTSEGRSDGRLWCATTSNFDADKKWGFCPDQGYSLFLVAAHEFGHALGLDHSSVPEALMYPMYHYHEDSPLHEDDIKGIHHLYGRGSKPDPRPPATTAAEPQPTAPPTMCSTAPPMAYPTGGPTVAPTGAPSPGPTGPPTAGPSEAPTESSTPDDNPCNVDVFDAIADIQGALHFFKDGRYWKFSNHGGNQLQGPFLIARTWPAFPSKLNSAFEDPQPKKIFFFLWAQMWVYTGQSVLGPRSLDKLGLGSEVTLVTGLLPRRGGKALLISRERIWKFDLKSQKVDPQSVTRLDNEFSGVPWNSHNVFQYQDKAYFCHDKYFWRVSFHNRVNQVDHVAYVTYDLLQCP

For the compound `c1cnc2c(c1)ccc1cccnc12` [1,10-phenanthroline], the “active enzyme bands / enzyme activity” value in test [1] (setting [2]) was “did not appear”; in test [1] (10 mM in incubation buffer, conditioned media from 48 h cultures, listed as 1, 10-phenanthroline, 10000 µM), “inactive”. The active enzyme bands result with Mr 64,000 proteinase (setting [2]) was “did not appear”.
Consider `O=C(O)CN(CCN(CC(=O)O)CC(=O)O)CC(=O)O` [EDTA, ethylenediaminetetraacetic acid], for which the entries for the “active enzyme bands / enzyme activity” value in test [1] and in test [1] (10000 µM) were “did not appear” and “inactive”, respectively. The active enzyme bands entry in the test on Mr 64,000 proteinase was “did not appear”.
In the case of `CCN1C(=O)C=CC1=O` [N-ethylmaleimide], the enzyme activity result in test [1] (setting [3]) is “did not inhibit”; in test [1] (5 mM in incubation buffer, conditioned media from 48 h cultures, listed as NEM), “not inhibited”; in the test on Mr 64,000 proteinase (setting [3]), “did not inhibit”.
Consider `O=S(=O)(F)Cc1ccccc1` [phenylmethylsulfonyl fluoride], for which the enzyme activity entry was “did not inhibit” in test [1] (setting [4]); “not inhibited” in test [1] (2 mM in incubation buffer, conditioned media from 48 h cultures, listed as PMSF); “did not inhibit” with Mr 64,000 proteinase (setting [4]).
